Structures can show the parent of a compound that is named as a salt.
Legend:
Ratten [1] = assay: Thresholds of emotional reactivity and aggressiveness on electric pain stimulation, rats; assay type: in vivo
Mäuse [2] = assay: Habituation study: electric pain stimulation thresholds on repeated dosing; assay type: in vivo
From the text: In einer Kammer von 20 x 20 x 25 cm Ausmass, deren Boden - ein Metallgitter aus Stangen darstellt, wurde ein Paar Tiere untergebracht (männliche Mäuse) und es wurde der Wechselstrom durchgelassen. Die Spannung wurde dosenartig auf 5 V solange erhöht, bis der Strom das Piepsen (die Schwelle der emotionellen Reaktivität) und die Schlägerei der Tiere (die Schwelle der Aggressivität) auslöste. Jede Spannungsgrösse wurde innerhalb von 5 sec zweimal in einem Zeitabstand von 20 bis 50 Sekunden aufrechterhalten. Die Kontrolle des Benehmens der Tiere begann man I0 Minuten nach der Einführung der oben erwähnten Verbindungen. Die Angaben sind in Tabellen 3, 4 angeführt.
(§1) Zur Untersuchung der Gewöhnung an die Wirkung der erfindungsgemässen Verbindung wurde die Dynamik der Benehmungseffekte an Mäusen beiderlei Geschlechts untersucht. In jeder Gruppe waren je I2 bis I8 Tiere. Die erfindungsgemässe Verbindung und γ -Amino- β - -phenylbuttersäurehydrochlorid wurden intraperitoneal in Dosen von 75 mg/kg bzw. 48 mg/kg zweimal am Tag eingeführt. Es wurden die Körpermasse, der Einfluss auf die motorische Aktivität (im Aktometer) und auf die emotionelle Reaktivität aud dem Wege der elektrischen Schmerzreizung untersucht. Die Tiere wurden innerhalb von 15 bis 20 Tagen untersucht. […] Der sedative Effekt der beanspruchten Verbindung war während der ganzen Versuchsperiode aufrechterhalten (Tabelle 7).

Mäuse [3] = assay: Habituation study: motor activity in actometer on repeated dosing; assay type: in vivo
Procedure: as §1

Ratten [4] = assay: Cold stress at 2°C, rectal temperature, rats; assay type: in vivo; conditions: for Rektaltemperatur nach I Stunde an der Kälte: 2°C; for Rektaltemperatur nach I Stunde: 1 h after dosing at room temperature
Procedure: Aus den in Tabellen angeführten Ergebnissen ist zu ersehen, dass die einmalige Einführung der neuen Verbindung die Schwimmdauer der Mäuse und Ratten wesentlich nicht beeinflusst. Nach der 20 Tage langen chronischen Einführung der neuen Verbindung wird die Schwimmdauer hingegen zuverlässig grösser - (Tabelle I7) um das I,5fache im kalten Wasser und um das 2,5fache bei einer Temperatur von 40°C (Tabelle I9) im Vergleich zu γ -Amino- β -phenylbuttersäurehydrochlorid. Auf diese Weise erhöht die chronische Einführung der neuen Verbindung wesentlich die physische Toleranz der Tiere. Ausserdem wurde auch die Toleranz der Tiere gegen den Kältestress bestimmt. Die Untersuchung wurde bei einer Temperatur von 2°C an Mäusen und Ratten durchgeführt, indem jedes Tier abgesondert in der Einzelkammer von I5 x 20 x 20 cm Ausmass untergebracht wurde. Es wurde die Rektaltemperatur vor der Einführung der neuen Verbindung, des γ -Amino- β - phenylbuttersäurehydrochlorids und der physiologischen Kontrollösung eine Stunde nach der Einführung bei Zimmertemperatur und nach I Stunde und 2 Stunden in der Kälte gemessen. Die Versuche wurden an einer Mäusengruppe (I0 Stück) (Tabelle 20) und an einer Rattengruppe (8 Stück) (Tabelle 2I) bei der einmaligen und chronischen Einführung innerhalb von 22 bzw. I6 Tagen einmal pro Tag angestellt.

Ratten [5] = assay: Natriumäthaminal intoxication, sleep duration, rats; assay type: in vivo
Procedure: (§2) Ausserdem wurde die Wirkung der beanspruchten Verbindung auf die durch Natriumäthaminal erzeugte Intoxikation untersucht. Die Versuche wurden an männlichen Mäusen und Ratten in Gruppen zu 8 bis I0 Tieren angestellt. Natriumäthaminal wurde intraperitoneal in einner Dosis von I00 mg/kg I5 min nach der enteralen Verabreichung der beanspruchten Verbindung oder der Kontrollarzneimittel eingeführt. Es wurde die einmalige und chronische Einwirkung (während I2 bis I4 Tage einmal täglich) von der neuen Verbindung, γ -Amino- β - -phenylbuttersäurehydrochlorid und Pyrazetam untersucht. Es wurde die Dauer der Seitenlage - des Schlafs der Tiere bestimmt. Die Ergebnisse dieser Untersuchung sind in Tabelle 23 (für Mäuse) und 24 (für Ratten) angeführt.

[6] = Habituation study: body mass; assay type: in vivo, Mäuse; conditions: 75 mg/kg bzw. 48 mg/kg i.p. twice daily, 15 to 20 days
Procedure: as §1

Mäuse [7] = assay: Natriumäthaminal intoxication, sleep duration, mice; assay type: in vivo
Procedure: as §2

Ratten [8] = assay: Swimming test at 2°C, rats; assay type: in vivo
From the text: Der Einfluss der beanspruchten Verbindung auf die physische Toleranz der Tiere wurde nach dem Schwimmtest der Mäuse und Ratten untersucht. Die Versuche wurden in einer Wanne von […] Fläche durchgeführt. Die Tiergruppe (8 bis I0 Mäuse oder Ratten) wurde ins Wasser gebracht und es wurde die Zeit der Schwimmfähigkeit bestimmt. Die neue Verbindung und γ -Amino- β - -phenylbuttersäurehydrochlorid wurden enteral und intraperitoneal I Stunde oder 3 Stunden vor dem Schwimmbeginn eingeführt. Die Untersuchung wurde sowohl nach der einmaligen als auch nach der chronischen (innerhalb von 20 Tagen einmal täglich) Einführung der genannten Verbindungen durchgeführt. Die Versuche wurden bei 3 Temperaturen angestellt: 2°C (Tabelle I7), 25°C (Tabelle I8) und 40°C (Tabelle I9).

Mäuse [9] = assay: Motor and orientation activity in photoelectric actometer; assay type: in vivo; conditions: counted 60 min from 10 min after dosing
From the text: Zur Bestimmung der sedativen Wirksamkeit wurde die motorische und Orientierungsaktivität und die motorische Fähigkeit in Versuchen an Mäusen und Ratten untersucht.
Den Versuchstieren wurden die beanspruchte Verbindung, γ -Amino- β -phenylbuttersäurehydrochlorid und Pyrazetam eingeführt. Als Kontrolle diente die physiologische Lösung (0,9%ige NaCl-Lösung). Die Untersuchungen wurden an I0 bis I2 erwachsenen Tieren (Mäuse, Ratten) durchgeführt.
Bei der Bestimmung der motorischen und Orientierungsaktivität wurde jede Maus in einer Einzelkamner des photoelektrischen Aktometers untergebracht. Die motorische und Orientierungsaktivität wurde nach der Zahl der Impulse bestimmt, die beim Berühren der Aktometerkontakte durch das Tier entstanden. Das Zählen der Im pulse wurde I0 min nach der intraperitonealen Einführung der genannten Verbindungen begonnen und dauerte innerhalb von 60 min. Die Angaben sind in der Tabelle I angeführt.

Mäuse [10] = assay: Hypoxia by subcutaneous Natriumnitroprussid, survival, mice; assay type: in vivo
Procedure: (§3) Die […] Hypoxie wurde durch die subkutane Einführung von Natriumnitroprussid in einer Dosis von 20 mg/kg den Gruppen von Mäusen und Ratten zu I0 Stück in der Gruppe erzeugt. Natriumnitroprussid wurde 60 min nach der Einführung der Prüfverbindungen verabreicht. Die Angaben sind in Tabelle I5 (für Mäuse) und I6 (für Ratten) angeführt.

Ratten [11] = assay: Hypoxia by subcutaneous Natriumnitroprussid, survival, rats; assay type: in vivo; conditions: Natriumnitroprussid 20 mg/kg s.c.
Procedure: as §3

[12] = day 1, 48 mg/kg i.p. twice daily
[13] = day 5, 48 mg/kg i.p. twice daily
[14] = day 10, 48 mg/kg i.p. twice daily
[15] = day 15, 48 mg/kg i.p. twice daily
[16] = 50 mg/kg chronic, 14 days + Natriumäthaminal 100 mg/kg i.p.
[17] = 50 mg/kg single + Natriumäthaminal 100 mg/kg i.p.
[18] = day 1, 75 mg/kg i.p. twice daily
[19] = day 5, 75 mg/kg i.p. twice daily
[20] = day 10, 75 mg/kg i.p. twice daily
[21] = day 15, 75 mg/kg i.p. twice daily

For `NCC(CC(=O)O)c1ccccc1` (stereo not drawn) [γ-Amino-β-phenylbutter-säurehydrochlorid, γ -Amino- β -phenylbuttersäurehydrochlorid, reference compound], the “Spannung in V, die Schwelle der Aggressivität” value (Ratten [1]; 80,0 mg/kg) was 44,6±0,6 V, the “Spannung in V, die Schwelle der Aggressivität” value (Mäuse [2]; [12]) was 29±2 V and the “Spannung in V, die Schwelle der emotionellen Reaktivität” value (Mäuse [2]; [12]) was 24±2 V. For the same compound, the “Spannung in V, die Schwelle der Aggressivität” value (Mäuse [2]; [13]) was 27±4 V, the “Spannung in V, die Schwelle der emotionellen Reaktivität” value (Mäuse [2]; [13]) was 23±2 V and the “Spannung in V, die Schwelle der Aggressivität” value (Mäuse [2]; [14]) was 26±3 V. For the same compound, the “Spannung in V, die Schwelle der emotionellen Reaktivität” value (Mäuse [2]; [14]) was 20±2 V, the “Spannung in V, die Schwelle der Aggressivität” value (Mäuse [2]; [15]) was 24±2 V and the “Anzahl der Impulse im Aktometer innerhalb von 45 min” value (Mäuse [3]; [12]) was 75±19. For the same compound, the “Anzahl der Impulse im Aktometer innerhalb von 45 min” value (Mäuse [3]; [13]) was 223±36, the “Anzahl der Impulse im Aktometer innerhalb von 45 min” value (Mäuse [3]; [14]) was 257±38 and the “Anzahl der Impulse im Aktometer innerhalb von 45 min” value (Mäuse [3]; [15]) was 283±47. For the same compound, the “Rektaltemperatur nach I Stunde an der Kälte” value (Ratten [4]; 35 mg/kg chronic, 16 days) was 23,2±0,2, the “Rektaltemperatur nach I Stunde” value (Ratten [4]; 35 mg/kg chronic, 16 days) was 30,4±0,3 and the Schlafdauer (Ratten [5]; [16]) was 290,0±17 min. For the same compound, the Schlafdauer (Ratten [5]; [17]) was 288,6±27 min, the Körpermasse [6] was “veränderte sich wesentlich nicht” and the Schlafdauer (Mäuse [7]; 35 mg/kg chronic, 12 days + Natriumäthaminal 100 mg/kg i.p.) was 390,0±37 min. For the same compound, the Schlafdauer (Mäuse [7]; 35 mg/kg single + Natriumäthaminal 100 mg/kg i.p.) was 274,3±32 min, the “Schwimmzeit, Ratten” value (Ratten [8]; 35 mg/kg chronic, 20 days) was 328,8±34 and the “Schwimmzeit, Ratten” value (Ratten [8]; 35 mg/kg single) was 304,3±29. The “Anzahl der Impulse im Aktometer” value (Mäuse [9]; 16 mg/kg i.p.) was 368±51, the “Anzahl der Impulse im Aktometer” value (Mäuse [9]; 32 mg/kg i.p.) was 238±28 and the “Anzahl der Impulse im Aktometer” value (Mäuse [9]; 40 mg/kg i.p.) was 158±21. The Überlebensdauer (Mäuse [10]; Natriumnitroprussid 20 mg/kg s.c., 35 mg/kg chronic, 10 days once daily) was 515,6±34 sec, the Überlebensdauer (Ratten [11]; 35 mg/kg chronic, 10 days once daily) was 876,6±90 sec and the Überlebensdauer (Ratten [11]; 35 mg/kg single) was 1359,0±100 sec.

With “γ -Amino- β -phenylbuttersäureorotat [Erfindungsgemässe Verbindung]” the “Spannung in V, die Schwelle der emotionnellen Reaktivität” value (Ratten [1]; 20,0 mg/kg) was 23,4±0,8 V, the “Spannung in V, die Schwelle der emotionnellen Reaktivität” value (Ratten [1]; 40,0 mg/kg) was 27,6±0,4 V and the “Spannung in V, die Schwelle der Aggressivität” value (Ratten [1]; 60,0 mg/kg) was 44,8±0,6 V. The “Spannung in V, die Schwelle der emotionnellen Reaktivität” value (Ratten [1]; 150,0 mg/kg) was 34,2±2,2 V, the “Spannung in V, die Schwelle der Aggressivität” value (Mäuse [2]; [18]) was 30±3 V and the “Spannung in V, die Schwelle der emotionellen Reaktivität” value (Mäuse [2]; [18]) was 22±2 V. For the same compound, the “Spannung in V, die Schwelle der Aggressivität” value (Mäuse [2]; [19]) was 29±2 V, the “Spannung in V, die Schwelle der emotionellen Reaktivität” value (Mäuse [2]; [19]) was 23±2 V and the “Spannung in V, die Schwelle der Aggressivität” value (Mäuse [2]; [20]) was 29±2 V. For the same compound, the “Spannung in V, die Schwelle der emotionellen Reaktivität” value (Mäuse [2]; [20]) was 24±3 V, the “Spannung in V, die Schwelle der Aggressivität” value (Mäuse [2]; [21]) was 34±3 V and the “Spannung in V, die Schwelle der emotionellen Reaktivität” value (Mäuse [2]; [21]) was 22±2 V. For the same compound, the “Anzahl der Impulse im Aktometer innerhalb von 45 min” value (Mäuse [3]; [18]) was 125±25, the “Anzahl der Impulse im Aktometer innerhalb von 45 min” value (Mäuse [3]; [19]) was 108±21 and the “Anzahl der Impulse im Aktometer innerhalb von 45 min” value (Mäuse [3]; [20]) was 109±47. For the same compound, the “Anzahl der Impulse im Aktometer innerhalb von 45 min” value (Mäuse [3]; [21]) was 123±17, the “Rektaltemperatur vor der Einführung der Verbindung” value (Ratten [4]; 50 mg/kg chronic, 16 days) was 30,7±0,2 and the “Rektaltemperatur nach I Stunde an der Kälte” value (Ratten [4]; 50 mg/kg chronic, 16 days) was 27,0±0,3. For the same compound, the “Rektaltemperatur vor der Einführung der Verbindung” value (Ratten [4]; 50 mg/kg single) was 30,4±0,3, the “Rektaltemperatur nach I Stunde” value (Ratten [4]; 50 mg/kg single) was 30,9±0,3 and the Schlafdauer (Ratten [5]; 25 mg/kg single + Natriumäthaminal 100 mg/kg i.p.) was 314,8±22 min. The Schlafdauer (Ratten [5]; [16]) was 167,4±23 min, the Schlafdauer (Ratten [5]; [17]) was 306,4±16 min and the Körpermasse [6] was “veränderte sich wesentlich nicht”. For the same compound, the Schlafdauer (Mäuse [7]; 50 mg/kg chronic, 12 days + Natriumäthaminal 100 mg/kg i.p.) was 178,4±14 min, the Schlafdauer (Mäuse [7]; [17]) was 261,3±21 min and the “Schwimmzeit, Ratten” value (Ratten [8]; 30 mg/kg chronic, 20 days) was 390,0±56. The “Anzahl der Impulse im Aktometer” value (Mäuse [9]; 25 mg/kg i.p.) was 322±43, the “Anzahl der Impulse im Aktometer” value (Mäuse [9]; 50 mg/kg i.p.) was 208±27 and the “Anzahl der Impulse im Aktometer” value (Mäuse [9]; 75 mg/kg i.p.) was 123±18. For the same compound, the Überlebensdauer (Mäuse [10]; Natriumnitroprussid 20 mg/kg s.c. 60 min after compound, 50 mg/kg single) was 740,3±68 sec, the Überlebensdauer (Mäuse [10]; Natriumnitroprussid 20 mg/kg s.c., 50 mg/kg chronic, 10 days once daily) was 1083,7±80 sec and the Überlebensdauer (Ratten [11]; 50 mg/kg chronic, 10 days once daily) was 1133,0±54 sec. The Überlebensdauer (Ratten [11]; 50 mg/kg single) was 1247,0±94 sec.

Source: patent publication EP0414895A1, “OROTATE OF $g(a)-AMINO-$g(b)-PHENYL-BUTYRIC ACID” (NAUCHNO-PROIZVODSTVENNOE OBIEDINENIE "BIOLAR", priority 1989, dated 1990)
